Test results reported in paper PMC6135396, “Repurposing antimalarial aminoquinolines and related compounds for treatment of retinal neovascularization” (PLoS ONE, 2018).
Like-named read-outs stand apart in the source and are kept apart here.

Assays:
[1] = Plasma-protein binding, mouse; type: in vitro ADME
LogD (pH 7.4) = type: physicochemical
[2] = test system: human retinal microvascular endothelial cells (HRECs); experiment: In vitro HREC tube formation assay; type: cell-based
Description: In vitro tube formation assays were carried out as previously described. Briefly, near confluent microvascular endothelial cells were pretreated with VEGF (100 ng/ml) for 2 h and then treated for 24 h with test compounds at serial concentrations, as indicated. Cells without VEGF treatment or with VEGF only were used as control. The cells were then detached and plated sparsely (2.5 ×10^4/well) on 24-well plates coated with 12.5% (v/v) Matrigel (BD, Franklin Lakes, NJ) and left overnight. The medium was then aspirated and 250 μl/well of 12.5% Matrigel was overlaid on the cells for 2 h to allow the polymerization of Matrigel, followed by addition of 500 μl/well of basal medium MCD131 with 10% fetal calf serum (FCS) for 24 h. The following day, the culture plates were observed under a phase contrast microscope and photographed at random in five fields (×10). The tubule length (mm/mm^2) per microscope field was quantified.

APJ [3] = target: T1, APJ (Homo sapiens, UniProt P35414); experiment: APJ cAMP assay (primary, cAMP HitHunter, CHO-K1-APJ cells); type: cell-based; design: host or cells: CHO-K1 (CHO-K1-APJ / CHO-k1-AGTRL1)
T1 sequence (P35414 1-380): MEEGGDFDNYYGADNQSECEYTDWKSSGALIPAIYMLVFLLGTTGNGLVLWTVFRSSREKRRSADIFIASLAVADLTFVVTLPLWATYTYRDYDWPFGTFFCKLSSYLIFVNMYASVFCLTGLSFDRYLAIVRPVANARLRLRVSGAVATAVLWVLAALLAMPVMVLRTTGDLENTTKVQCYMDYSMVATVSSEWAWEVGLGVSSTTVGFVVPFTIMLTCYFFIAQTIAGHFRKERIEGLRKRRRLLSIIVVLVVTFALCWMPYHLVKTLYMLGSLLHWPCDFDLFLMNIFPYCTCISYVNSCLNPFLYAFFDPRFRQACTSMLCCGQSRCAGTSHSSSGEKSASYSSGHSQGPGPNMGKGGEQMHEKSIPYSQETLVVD
Description: To identify small-molecule antagonists of the apelin receptor (APJ) we interrogated the SBP compound file of ~425,000 compounds using CHO-k1-AGTRL1 cells overexpressing human APJ and a competitive immunoassay of intracellular cAMP [59]. The compound file was screened at a concentration of 10 μM. For all 333 plates assayed, the average Z-factor = 0.68 and the average S/B = 8.2, indicating a robust assay performance. […] There were 2550 compounds that met this criterion, representing a hit rate of ~0.6%. […] Included in this hit set was a series of aminoquinolines, exemplified by compound 1 (Fig 1B). […] As part of an initial hit-validation strategy, these compounds and three other commercially available analogs were purchased for further testing. The purity and identify of all compounds were confirmed by NMR and LC-MS, and they were subsequently retested in a battery of cell-based assays of APJ function and counter screens. […] (Fig 1D).
PathHunter™ GPCR Arrestin and cAMP Hunter™ cell lines (DiscoveRx Corp., Fremont, CA) were used to assay G-protein-dependent signaling and β-arrestin recruitment to APJ. CHO-K1 cells stably expressing APJ (CHO-K1-APJ) or AT1 (CHO-K1-AT1) with β-arrestin/β-galactosidase enzyme fragment complementation constructs were maintained in HAM's F-12 medium (Hyclone, Logan, UT) supplemented with 10% FBS, 1X Penicillin-Streptomycin-Glutamine (Invitrogen; Carlsbad, CA), 300 μg/ml hygromycin (EMD Biosciences, San Diego, CA), and 800 μg/ml Geneticin (Cellgro, Manassas, VA). Primary Human Retinal Microvascular Endothelial Cells (HRECs) were purchased from Cell Systems (Kirkland, WA) and maintained in Complete Classic Medium with CultureBoost-R™ (Cell Systems). Parent CHO-K1 cells were obtained from ATCC and maintained in HAM’s F-12 medium supplemented with 10% FBS, and1X Penicillin-Streptomycin-Glutamine (Invitrogen; Carlsbad, CA). All cells were incubated at 37°C (5% CO2, 95% relative humidity) and maintained at less than 70% to 80% confluence (approximately 75,000 cells/cm^2). Cell heterologously expressing APJ or AT1 were not used after 10 passages. HRECs were not used in any experiments after five passages.
All reagents unless otherwise specified are components of the cAMP HitHunter (DiscoveRx) kit. Ligand Buffer + 60 μM Forskolin (Cayman Chemical, Ann Arbor, MI) was made fresh on the day of the experiment and used for the dilution of positive and negative controls as well as all peptides. CHO-K1-APJ cells were dispensed into a 1536-well tissue culture microplate (Corning, Corning, NY) using a Multidrop at a seeding density of 1,000 cells/well and returned to the incubator. The next day, the cell culture media was removed and replaced with 15 μl/well of assay buffer (1X HBSS, 10 mM HEPES) containing anti-cAMP antibody (DiscoveRx). […] Plates were incubated at room temperature in the dark for 3 hours prior to chemiluminescence detection on an EnVision (Perkin Elmer) using a counting time of 1 s/well.

HRECs = experiment: Cytotoxicity, ATP-Lite, HRECs; type: cell-based; settings: tested up to 100 μM
Description: (§1) Fa2N-4 immortalized human hepatocytes (Xenotech) or HREC cells were grown to subconfluency in wells of a 96-well plate and exposed to different concentrations of compounds for 24 h after which the cells were washed and the media and compounds replaced. The cells were returned to the incubator for another 24 h. The extent of cell death (cell lysis) was determined by ATP-Lite reagent (Perkin-Elmer).

[4] = Cytotoxicity, ATP-Lite, HRECs; type: cell-based; settings: human, HREC cells; HRECs; read-out: Cytotoxicity LC50
Description: as §1

PAMPA permeability = type: in vitro ADME
[5] = Tissue distribution in the mouse eye after intravitreal injection; type: in vivo; settings: 7 d after IVT administration
Description: Mice were assigned to groups (n = 6/group) that received either 50 μg compound, or vehicle via intravitreal injection (1 μl volume). One day after injection, ½ of the mice (n = 3 / group) mice were euthanized. The eyes were enucleated and the vitreous humor, retina, and RPE/Choroid/sclera were isolated and snap frozen in liquid N2. The remaining mice in each treatment group (n = 3 / group) were euthanized and the same tissues collected. The quantity of compound in the tissues (n = 6 eyes / treatment group) was measured using LC-MS/MS.

APJ [6] = target: T1, APJ; experiment: Radioligand competition binding assay, [125I]-Glp65, Nle75, Tyr77-Ap13 on APJ membranes; design: purchased Perkin Elmer; settings: tested as high as 100 μM
Description: Soaking buffer (300 μl/well) was added to a 96-well GF/C filter plate (MultiScreen Harvest plate, Millipore) and left to equilibrate at room temperature for 3 h. […] Following incubation, contents were transferred from the OptiPlate to the pre-wet GF/C filter plate, and immediately underwent vacuum filtration. The filter plate was washed five times with 200 μl ice cold wash buffer and left at room temperature overnight to equilibrate. The next day, 20 μl scintillation liquid (Microscint 20, Perkin Elmer) was added and radioactivity quantified using a TopCount NXT (Perkin Elmer) microplate scintillation and luminescence counter. […] The Cheng & Prusoff equation was used to convert IC50 estimates to equilibrium dissociation constants [89].

CCN(CC)Cc1cc(Nc2ccnc3cc(Cl)ccc23)ccc1O [AQ, amodiaquine]
Plasma-protein binding ([1]; 1 μM): 81.9 % bound
Plasma-protein binding ([1]; 10 μM): 70.8 % bound
logD (LogD (pH 7.4)): 2.37
Effect on Ap13-dependent increase in HREC tube formation ([2]; Ap13-induced, concentration-dependent): blocked Ap13-dependent increases in tube formation
Effect on VEGF-induced HREC tube formation ([2]; VEGF 100 ng/mL, absence of exogenous Ap13): blocked VEGF-induced tube formation
IC50 (APJ [3]): 3.45 ± 0.028 µM
Mode of APJ antagonism (APJ [3]; Ap13 concentration response curves after pre-incubation with AQ, Schild-type analysis): non-competitive APJ antagonist
Cytotoxicity to HRECs (HRECs): Neither ML221 nor AQ were significantly toxic
CC50 at 48 h [4]: > 100 µM
Papp (PAMPA permeability; Donor pH 5.0, Acceptor pH 7.4, read-out: PAMPA permeability Pe): 3 ×10⁻⁶ cm/s
Papp (PAMPA permeability; Donor pH 6.2, Acceptor pH 7.4, read-out: PAMPA permeability Pe): 9.6 ×10⁻⁶ cm/s
Papp (PAMPA permeability; pH 7.4, Donor pH 7.4, Acceptor pH 7.4, read-out: PAMPA permeability Pe): 54 ×10⁻⁶ cm/s
AQ level in plasma [5]: No detectable levels
Displacement of [125I]-Glp65, Nle75, Tyr7-Ap13 binding (APJ [6]): did not displace
